One test concerns the target EGFR Del19/T790M/C797S (Homo sapiens, UniProt P00533, C797S/DEL746-750/T790M). The experiment in a line: Biochemical EGFR kinase inhibition assay (Lance Ultra TR-FRET), triple mutant del19/T790M/C797S. The method, boiled down: (§1)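 Enzyme reactions lasted 1 hour at room temperature with test compounds between 0.003 and 10 μM, followed by 10 mM EDTA quench.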
On the technique in general: In TR-FRET formats the signal depends on donor and acceptor labels being close together.

The next test has as its target EGFR L858R/T790M/C797S (Homo sapiens, UniProt P00533, C797S/L858R/T790M). Briefly: Biochemical EGFR kinase inhibition assay (Lance Ultra TR-FRET), triple mutant L858R/T790M/C797S. The method in brief:
as §1

Another test addresses EGFR Del19/C797S (Homo sapiens, UniProt P00533, C797S/DEL746-750). Briefly: Biochemical EGFR kinase inhibition assay (Lance Ultra TR-FRET), double mutant del19/C797S. The method, boiled down: as §1
In the next test the target is EGFR L858R/C797S (Homo sapiens, UniProt P00533, C797S/L858R). Briefly: Biochemical EGFR kinase inhibition assay (Lance Ultra TR-FRET), double mutant L858R/C797S. The method, boiled down: as §1
Chain of EGFR L858R/C797S (P00533 25-1210 C797S/L858R): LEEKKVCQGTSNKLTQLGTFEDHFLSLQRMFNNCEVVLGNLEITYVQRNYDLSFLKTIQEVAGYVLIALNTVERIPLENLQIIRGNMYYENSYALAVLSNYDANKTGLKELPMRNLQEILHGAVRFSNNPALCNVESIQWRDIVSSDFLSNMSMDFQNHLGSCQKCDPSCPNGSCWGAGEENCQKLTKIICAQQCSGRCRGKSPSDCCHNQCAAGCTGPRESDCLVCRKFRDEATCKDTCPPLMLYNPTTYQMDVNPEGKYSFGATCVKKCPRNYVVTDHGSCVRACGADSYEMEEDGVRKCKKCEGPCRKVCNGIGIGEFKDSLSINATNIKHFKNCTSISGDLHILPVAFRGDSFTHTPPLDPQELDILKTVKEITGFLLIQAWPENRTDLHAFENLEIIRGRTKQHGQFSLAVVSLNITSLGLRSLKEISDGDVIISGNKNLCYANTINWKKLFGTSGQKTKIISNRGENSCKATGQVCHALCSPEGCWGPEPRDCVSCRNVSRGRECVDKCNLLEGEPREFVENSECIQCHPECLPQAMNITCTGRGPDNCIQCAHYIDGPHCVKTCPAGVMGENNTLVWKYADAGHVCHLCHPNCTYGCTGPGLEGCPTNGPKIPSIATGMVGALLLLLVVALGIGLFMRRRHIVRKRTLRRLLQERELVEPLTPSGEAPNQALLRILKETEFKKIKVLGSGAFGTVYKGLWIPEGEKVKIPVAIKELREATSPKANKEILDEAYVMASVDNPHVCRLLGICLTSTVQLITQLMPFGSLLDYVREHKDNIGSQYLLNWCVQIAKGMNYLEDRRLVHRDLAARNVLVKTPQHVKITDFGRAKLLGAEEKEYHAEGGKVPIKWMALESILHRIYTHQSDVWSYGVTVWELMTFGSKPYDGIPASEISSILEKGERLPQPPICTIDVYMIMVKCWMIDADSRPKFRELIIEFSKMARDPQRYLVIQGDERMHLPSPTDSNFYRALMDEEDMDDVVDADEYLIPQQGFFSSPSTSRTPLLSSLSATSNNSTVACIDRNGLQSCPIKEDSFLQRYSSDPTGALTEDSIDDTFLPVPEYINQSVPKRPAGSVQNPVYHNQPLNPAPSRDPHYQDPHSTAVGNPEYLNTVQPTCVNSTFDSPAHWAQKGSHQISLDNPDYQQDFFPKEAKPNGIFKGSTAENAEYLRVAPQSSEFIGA
In another test the target is EGFR wildtype (WT) (Homo sapiens, UniProt P00533). Briefly: Biochemical EGFR kinase inhibition assay (Lance Ultra TR-FRET), wildtype. The method, boiled down: as §1
[1] abbreviates: IC50 Del19/T790M/C797S (nM), 100 μM ATP.
Where [2] appears, read: Km ATP, read-out: IC50 Del19/T790M/C797S (nM), Km ATP.
Setting [3] is: IC50 L858R/T790M/C797S (nM), 100 μM ATP.
[4] abbreviates: Km ATP, read-out: IC50 L858R/T790M/C797S (nM), Km ATP.
Where [5] appears, read: IC50 Del19/C797S (nM), 100 μM ATP.
Where [6] appears, read: Km ATP, read-out: IC50 Del19/C797S (nM), Km ATP.
[7] abbreviates: IC50 L858R/C797S (nM), 100 μM ATP.
The mark [8] stands for this setting: Km ATP, read-out: IC50 L858R/C797S (nM), Km ATP.
Setting [9] is: Km ATP, read-out: IC50 WT (nM), Km ATP.
Setting [10] is: Km ATP, read-out: IC50 Del19/T790M/C797S (nM) Km ATP.
Where [11] appears, read: Km ATP, read-out: IC50 L858R/T790M/C797S (nM) Km ATP.
The mark [12] stands for this setting: Km ATP, read-out: IC50 Del19/C797S (nM) Km ATP.
The mark [13] stands for this setting: Km ATP, read-out: IC50 L858R/C797S (nM) Km ATP.
[14] abbreviates: Km ATP, read-out: IC50 WT (nM) Km ATP.

The source of these data is US11981658B2, “Substituted aminopyridine compounds as EGFR inhibitors” (YUHAN CORPORATION, priority 2021, dated 2024).

Like-named read-outs stand apart in the source and are kept apart here.

Chain of EGFR L858R/T790M/C797S (P00533 25-1210 T790M/C797S/L858R): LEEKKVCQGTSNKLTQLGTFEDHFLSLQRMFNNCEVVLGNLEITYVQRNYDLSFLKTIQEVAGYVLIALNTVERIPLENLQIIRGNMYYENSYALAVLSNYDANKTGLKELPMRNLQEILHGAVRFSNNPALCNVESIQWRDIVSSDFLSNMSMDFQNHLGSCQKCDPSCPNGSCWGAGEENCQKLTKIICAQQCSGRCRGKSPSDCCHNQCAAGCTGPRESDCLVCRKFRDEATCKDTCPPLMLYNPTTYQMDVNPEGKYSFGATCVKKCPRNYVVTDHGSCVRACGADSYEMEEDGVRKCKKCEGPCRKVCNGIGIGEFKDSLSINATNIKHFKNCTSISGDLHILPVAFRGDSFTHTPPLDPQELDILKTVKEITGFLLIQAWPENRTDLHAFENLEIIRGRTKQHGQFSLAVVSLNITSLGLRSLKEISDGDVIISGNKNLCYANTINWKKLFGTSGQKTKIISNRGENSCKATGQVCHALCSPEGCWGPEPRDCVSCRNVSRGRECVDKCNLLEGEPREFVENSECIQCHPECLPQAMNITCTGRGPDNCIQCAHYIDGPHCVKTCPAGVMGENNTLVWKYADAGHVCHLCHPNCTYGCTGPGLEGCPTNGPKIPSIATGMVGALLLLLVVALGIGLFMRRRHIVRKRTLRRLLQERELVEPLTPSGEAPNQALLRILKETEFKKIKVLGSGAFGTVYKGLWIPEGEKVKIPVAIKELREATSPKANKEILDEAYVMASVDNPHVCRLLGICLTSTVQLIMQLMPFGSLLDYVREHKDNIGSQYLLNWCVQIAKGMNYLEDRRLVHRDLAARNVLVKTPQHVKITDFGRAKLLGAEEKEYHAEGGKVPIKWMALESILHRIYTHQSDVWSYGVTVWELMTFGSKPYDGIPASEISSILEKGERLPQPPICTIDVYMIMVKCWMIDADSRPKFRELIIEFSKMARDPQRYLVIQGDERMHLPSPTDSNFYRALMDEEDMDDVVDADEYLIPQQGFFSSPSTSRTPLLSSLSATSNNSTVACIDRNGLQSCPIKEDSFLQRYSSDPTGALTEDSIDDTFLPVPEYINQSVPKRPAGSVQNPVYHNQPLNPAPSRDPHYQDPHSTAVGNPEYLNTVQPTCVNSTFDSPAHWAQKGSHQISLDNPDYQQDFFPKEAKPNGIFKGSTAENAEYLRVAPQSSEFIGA
Chain of EGFR Del19/T790M/C797S (P00533 with tags, fused parts or gaps DEL746-750/T790M/C797S): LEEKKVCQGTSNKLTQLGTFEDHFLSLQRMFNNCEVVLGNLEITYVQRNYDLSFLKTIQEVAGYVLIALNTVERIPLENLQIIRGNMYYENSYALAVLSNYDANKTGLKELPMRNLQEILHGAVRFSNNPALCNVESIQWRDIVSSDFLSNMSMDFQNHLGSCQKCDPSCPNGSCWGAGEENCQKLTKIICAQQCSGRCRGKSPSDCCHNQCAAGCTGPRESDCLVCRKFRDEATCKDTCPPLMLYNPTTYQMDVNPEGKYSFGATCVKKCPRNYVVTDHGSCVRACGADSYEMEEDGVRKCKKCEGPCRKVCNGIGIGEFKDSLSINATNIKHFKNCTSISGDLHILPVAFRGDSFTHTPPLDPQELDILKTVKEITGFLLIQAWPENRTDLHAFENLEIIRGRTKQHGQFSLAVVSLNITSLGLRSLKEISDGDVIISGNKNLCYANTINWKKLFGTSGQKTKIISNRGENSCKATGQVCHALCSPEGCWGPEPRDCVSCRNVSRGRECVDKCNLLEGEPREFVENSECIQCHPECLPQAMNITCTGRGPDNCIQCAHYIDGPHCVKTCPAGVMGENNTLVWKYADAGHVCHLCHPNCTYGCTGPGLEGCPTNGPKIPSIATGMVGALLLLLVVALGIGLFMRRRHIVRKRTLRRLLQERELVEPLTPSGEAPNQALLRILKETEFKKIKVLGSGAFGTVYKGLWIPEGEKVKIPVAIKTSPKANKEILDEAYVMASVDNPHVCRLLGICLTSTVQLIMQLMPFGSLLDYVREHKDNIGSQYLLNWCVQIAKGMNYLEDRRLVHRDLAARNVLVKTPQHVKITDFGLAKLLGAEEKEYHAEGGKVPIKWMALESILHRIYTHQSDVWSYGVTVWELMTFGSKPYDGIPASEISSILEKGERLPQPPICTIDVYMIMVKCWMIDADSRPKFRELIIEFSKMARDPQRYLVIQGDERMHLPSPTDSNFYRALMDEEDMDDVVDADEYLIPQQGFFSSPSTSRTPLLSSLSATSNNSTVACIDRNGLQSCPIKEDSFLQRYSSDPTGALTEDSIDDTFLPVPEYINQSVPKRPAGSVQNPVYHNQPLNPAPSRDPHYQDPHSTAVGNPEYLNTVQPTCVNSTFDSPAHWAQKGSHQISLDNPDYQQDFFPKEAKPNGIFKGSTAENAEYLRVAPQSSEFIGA
Chain of EGFR Del19/C797S (P00533 with tags, fused parts or gaps DEL746-750/C797S): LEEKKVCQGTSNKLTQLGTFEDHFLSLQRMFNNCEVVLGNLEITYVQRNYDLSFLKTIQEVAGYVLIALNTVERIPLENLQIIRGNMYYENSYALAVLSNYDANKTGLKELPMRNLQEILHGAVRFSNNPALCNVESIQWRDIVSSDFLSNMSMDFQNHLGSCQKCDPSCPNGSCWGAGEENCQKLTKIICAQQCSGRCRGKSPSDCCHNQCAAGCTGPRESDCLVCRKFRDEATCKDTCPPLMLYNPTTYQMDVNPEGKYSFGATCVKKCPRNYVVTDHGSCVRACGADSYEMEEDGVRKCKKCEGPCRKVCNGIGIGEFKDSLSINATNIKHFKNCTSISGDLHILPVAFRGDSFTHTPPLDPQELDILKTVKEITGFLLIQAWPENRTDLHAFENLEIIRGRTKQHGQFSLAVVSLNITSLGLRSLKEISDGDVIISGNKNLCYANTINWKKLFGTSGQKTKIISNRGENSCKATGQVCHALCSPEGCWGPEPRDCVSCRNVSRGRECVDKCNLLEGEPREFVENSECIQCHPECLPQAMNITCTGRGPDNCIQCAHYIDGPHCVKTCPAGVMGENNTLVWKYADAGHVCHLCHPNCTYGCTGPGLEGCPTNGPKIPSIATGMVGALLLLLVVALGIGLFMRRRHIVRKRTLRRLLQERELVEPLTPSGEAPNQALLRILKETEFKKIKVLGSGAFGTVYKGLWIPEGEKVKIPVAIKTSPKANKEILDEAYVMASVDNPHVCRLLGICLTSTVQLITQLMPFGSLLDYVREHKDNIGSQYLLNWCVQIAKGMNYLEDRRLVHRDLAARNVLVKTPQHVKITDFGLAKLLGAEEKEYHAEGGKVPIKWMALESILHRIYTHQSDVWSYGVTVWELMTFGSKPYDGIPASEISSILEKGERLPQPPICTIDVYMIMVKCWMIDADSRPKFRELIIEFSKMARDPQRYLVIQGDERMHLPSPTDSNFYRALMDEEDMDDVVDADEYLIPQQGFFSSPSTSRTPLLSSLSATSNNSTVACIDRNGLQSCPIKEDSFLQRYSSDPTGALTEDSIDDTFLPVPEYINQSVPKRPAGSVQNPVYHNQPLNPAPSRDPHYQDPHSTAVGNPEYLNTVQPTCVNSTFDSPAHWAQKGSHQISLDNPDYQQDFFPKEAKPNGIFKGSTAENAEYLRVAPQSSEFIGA

With `O=S(=O)(C1CC1)n1cc(-c2nccc(Nc3cc(NC4CCC(CO)CC4)c(C#CC4CCOC4C(F)(F)F)cn3)n2)cn1` [Example 416, ((1s,4s)-4-((2-((2-(1-(Cyclopropylsulfonyl)-1H-pyrazol-4-yl)pyrimidin-4-yl)amino)-5-(((2R)-2-(trifluoromethyl)tetrahydrofuran-3-yl)ethynyl)pyridin-4-yl)amino)cyclohexyl)methanol], the IC50 at EGFR Del19/T790M/C797S (setting [1]) was determined as 2.7 nM; at EGFR Del19/T790M/C797S (setting [2]) it was 2.6 nM; against EGFR L858R/T790M/C797S (setting [3]), 2.8 nM; on EGFR L858R/T790M/C797S (setting [4]), 0.9 nM; against EGFR Del19/C797S (setting [5]) it was 8.2 nM; at EGFR Del19/C797S (setting [6]), 7.2 nM. Further, the IC50 against EGFR L858R/C797S (setting [7]) is 165 nM; on EGFR L858R/C797S (setting [8]), 33.6 nM; on EGFR wildtype (WT) (IC50 WT (nM), 100 μM ATP), greater than 10000 nM; on EGFR wildtype (WT) (setting [9]), 84.5 nM.
As for `O=S(=O)(C1CC1)n1cc(-c2nccc(Nc3cc(N4CCCC(CO)C4)c(C#Cc4cnn(C5CCOCC5)c4)cn3)n2)cn1` (centres unmarked) [Example 100, (1-(2-((2-(1-(Cyclopropylsulfonyl)-1H-pyrazol-4-yl)pyrimidin-4-yl)amino)-5-((1-(tetrahydro-2H-pyran-4-yl)-1H-pyrazol-4-yl)ethynyl)pyridin-4-yl)piperidin-3-yl)methanol], the IC50 was 1.6 nM on EGFR Del19/T790M/C797S (setting [1]); 1.7 nM on EGFR Del19/T790M/C797S (setting [10]); 5.6 nM against EGFR L858R/T790M/C797S (setting [3]); 1.3 nM at EGFR L858R/T790M/C797S (setting [11]); 12.9 nM against EGFR Del19/C797S (setting [5]); 10.7 nM on EGFR Del19/C797S (setting [12]). The IC50 against EGFR L858R/C797S (setting [7]) was 73.9 nM; at EGFR L858R/C797S (setting [13]), 7.1 nM; on EGFR wildtype (WT) (IC50 WT (nM), 100 μM ATP), greater than 10000 nM; on EGFR wildtype (WT) (setting [14]) it was 62 nM.
Take `CC(=O)N1CCC(n2cc(C#Cc3cnc(Nc4ccnc(-c5cnn(S(=O)(=O)C6CC6)c5)n4)cc3N[C@H]3CC[C@@H](O)CC3)cn2)CC1` [Example 109, 1-(4-(4-((6-((2-(1-(Cyclopropylsulfonyl)-1H-pyrazol-4-yl)pyrimidin-4-yl)amino)-4-(((1 s, 4s)-4-hydroxycyclohexyl)amino)pyridin-3-yl)ethynyl)-1H-pyrazol-1-yl)piperidin-1-yl)ethan-1-one]: the IC50 at EGFR Del19/T790M/C797S (setting [1]) was 1 nM; at EGFR Del19/T790M/C797S (setting [10]), 0.9 nM; on EGFR L858R/T790M/C797S (setting [3]), 1.4 nM; on EGFR L858R/T790M/C797S (setting [11]), 0.7 nM; against EGFR Del19/C797S (setting [5]), 3 nM; on EGFR Del19/C797S (setting [12]), 2.3 nM. In addition, the IC50 at EGFR L858R/C797S (setting [7]) is 9.1 nM; on EGFR L858R/C797S (setting [13]) it was 1.6 nM; against EGFR wildtype (WT) (IC50 WT (nM), 100 μM ATP) it was greater than 10000 nM; at EGFR wildtype (WT) (setting [14]) it was 10.4 nM.
Turning to `COC1(O)CCN(c2cc(Nc3ccnc(-c4cnn(S(=O)(=O)C5CC5)c4)n3)ncc2C#Cc2ncc(CN3CCOCC3)cn2)CC1` [Example 365, 1-(2-((2-(1-(Cyclopropylsulfonyl)-1H-pyrazol-4-yl)pyrimidin-4-yl)amino)-5-((5-(morpholinomethyl)pyrimidin-2-yl)ethynyl)pyridin-4-yl)-4-methoxypiperidin-4-ol], the IC50 came out at 0.7 nM against EGFR Del19/T790M/C797S (setting [1]); 0.4 nM on EGFR Del19/T790M/C797S (setting [2]); 1.3 nM against EGFR L858R/T790M/C797S (setting [3]); 0.1 nM at EGFR L858R/T790M/C797S (setting [4]); 3.5 nM against EGFR Del19/C797S (setting [5]); 3.3 nM at EGFR Del19/C797S (setting [6]). For the same compound, the IC50 at EGFR L858R/C797S (setting [7]) was 46.6 nM; on EGFR L858R/C797S (setting [8]) it was 3.9 nM; against EGFR wildtype (WT) (IC50 WT (nM), 100 μM ATP), greater than 10000 nM; at EGFR wildtype (WT) (setting [9]) it was 10.5 nM.
As for `O=S(=O)(C1CC1)n1cc(-c2nccc(Nc3cc(N4CCC(F)CC4)c(C#Cc4cnn(C5CCOCC5)c4)cn3)n2)cn1` [Example 97, 2-(1-(Cyclopropylsulfonyl)-1H-pyrazol-4-yl)-N-(4-(4-fluoropiperidin-1-yl)-5-((1-(tetrahydro-2H-pyran-4-yl)-1H-pyrazol-4-yl)ethynyl)pyridin-2-yl)pyrimidin-4-amine], the IC50 is 1.8 nM against EGFR Del19/T790M/C797S (setting [1]); 1.8 nM at EGFR Del19/T790M/C797S (setting [10]); 5.9 nM on EGFR L858R/T790M/C797S (setting [3]); 1.7 nM at EGFR L858R/T790M/C797S (setting [11]); 25.1 nM at EGFR Del19/C797S (setting [5]); 18.3 nM at EGFR Del19/C797S (setting [12]). Besides, the IC50 against EGFR L858R/C797S (setting [7]) is 162 nM; on EGFR L858R/C797S (setting [13]), 9.2 nM; at EGFR wildtype (WT) (IC50 WT (nM), 100 μM ATP), greater than 10000 nM; at EGFR wildtype (WT) (setting [14]), 86.5 nM.
